The test system of test [1] is Pa6. The test can be described thus: MIC determination. Format: cell-based, Pseudomonas aeruginosa. The note with it: Pseudomonas aeruginosa. The text has this: (§1) MIC (minimum inhibition concentration) is given in μM and AD (agar diffusion zones of inhibition are given in mm from Kirby-Bauer Petri dish growth inhibition studies).
Test [2] concerns P. aeruginosa KW799/wt. In words: MIC determination. In kind it is cell-based, Pseudomonas aeruginosa. The text has this: (§2) Table 3 that was included in the first Example 4 section provides antibacterial data for the first synthetic sideromycins we prepared and studied. The second Example 4 section elaborated and expanded on that data with inclusion of representative antibacterial data in the text and associated pictures of Petri dish assays. MIC (minimum inhibition concentration) is given in μM and AD (agar diffusion zones of inhibition are given in mm from Kirby-Bauer Petri dish growth inhibition studies).

Test [3] has as its system Pa4. In words: MIC determination. Format: cell-based, Pseudomonas aeruginosa. Conditions: Pseudomonas aeruginosa.
Excerpt: as §2

In test [4] the test system is Pa-Da-1304 CF patient isolate. The test can be described thus: MIC determination. Format: cell-based, Pseudomonas aeruginosa. Conditions: for MIC: Pseudomonas aeruginosa; for susceptibility of the clinical isolate (in words): preliminary tests.
Excerpt: as §1
We obtained a clinical isolate of Pseudomonas from a cystic fibrosis patient.

Test [5] concerns A. baumannii ATCC 17961. In words: MIC determination. Format: cell-based, Acinetobacter baumannii.
Excerpt: as §2

Test [6] concerns Pseudomonas aeruginosa 01 (Pa01). In words: MIC determination. Format: cell-based. Conditions: read-out: MIC.
Excerpt: as §2

The test system of test [7] is Acinetobacter baumannii ATCC 17961. In words: Agar diffusion (Kirby-Bauer) assay, with and without hydrogel. In kind it is cell-based. Conditions: for zones of inhibition (in words): Acinetobacter, FIG. 8, 9, 10; for AD = agar diffusion inhibition zones: Table 5, head prints A. baumannii only.
Excerpt: as §2
We investigated whether the sideromycin absorbed in the gel be able to diffuse out of the gel and into the agar to effect antibacterial growth. As a control, the sideromycin alone, without gel, was added in a separate 9 mm well, as usual.
The second question was whether the sideromycin continue to be released and be able to effect bacterial growth inhibition over extended periods. Thus, additional identical agar plates were prepared and stored at 4° C. for 24, 48 and 72 hours to allow diffusion of the sideromycin (control and gel forms) into the agar before allowing the bacteria to grow in an incubator. Then after each time period, the Petri dishes were incubated at 37° C. for 20 hours to promote bacteria growth in the agar. […] The study has been extended to as long as 168 hours (one week) with retention of antibiotic effectiveness.
(In general: A growth-free zone around the sample is the usual read-out of agar diffusion tests.)

Test [8] has as its system Pseudomonas aeruginosa KW799/wt. In words: Agar diffusion (Kirby-Bauer) assay. Format: cell-based. Conditions: for zones of inhibition (in words): wild type Pseudomonas, FIG. 8, 9, 12.
Excerpt: as §2

Test [9] deals with E. coli DC2. In words: Agar diffusion (Kirby-Bauer) assay. Conditions: Table 5. In kind it is cell-based.
Excerpt: as §2

For test [10], the system named is E. coli DC0. The test can be described thus: Agar diffusion (Kirby-Bauer) assay. In kind it is cell-based. The note with it: Table 5.
Excerpt: as §2

In test [11] the test system is Pseudomonas aeruginosa KW799/61. Format: cell-based. The note with it: for AD = agar diffusion inhibition zones: Table 5.
Excerpt: as §1

Test [12] concerns strains of Pseudomonas and Acinetobacter. The test can be described thus: Antibacterial activity, general statements. In kind it is cell-based. The note with it: general statements of the text. On the procedure:
Antibiotic activity was determined using agar diffusion assays against representative Gram-negative bacteria, including Pseudomonas aeruginosa (Pa6), and several multidrug resistant forms of Acinetobacter baumannii. Representative results are shown in Table 1 and a corresponding picture of an actual petri dish showing the agar diffusion results (FIG. 4). […].

Test [13] relates to E. coli DC2 (permeability mutant). In words: MIC determination. Format: cell-based. Conditions: Escherichia coli.
Excerpt: as §2

The subject of test [14] is E. coli DC0. In words: MIC determination. In kind it is cell-based. The note with it: Escherichia coli, DC0; Table 5; read-out: MIC.
Excerpt: as §2

Test [15] concerns P. aeruginosa KW799/61 (permeability mutant). In words: microbe, parasite or virus in culture. In kind it is cell-based, Pseudomonas aeruginosa. The note with it: Pseudomonas aeruginosa.
Excerpt: as §1

Setting [16] is: Pseudomonas aeruginosa, KW799/WT, Table 5, read-out: MIC.
The mark [17] stands for this setting: Acinetobacter baumannii, ATCC17961, Table 5, head prints A. baumannii only, read-out: MIC.
[18] abbreviates: Pseudomonas aeruginosa, Table 5.
The mark [19] stands for this setting: Acinetobacter baumannii, ATCC17961, Table 7, read-out: MIC.
Setting [20] is: Pseudomonas aeruginosa, Table 7.

Converted amounts (≈) assume the structure as drawn. “Also recorded” adds a separate entry of the source. Read-outs that look alike come from different tables or passages of the source.

For the compound `CC(=O)Oc1cccc(C(=O)NCCCCN(CCCNC(=O)c2cccc(OC(C)=O)c2OC(C)=O)C(=O)CCC(=O)N[C@@H](CCCN(O)C(C)=O)C(=O)N[C@@H](C(=O)N[C@@H]2C(=O)N3C(C(=O)O)=C(Cl)CCC23)c2ccccc2)c1OC(C)=O` (some centres unmarked) [MG-1-185], the MIC in [1] (Table 6, read-out: MIC) was > 50 µM; in test [2] (Pseudomonas aeruginosa, KW799/WT, Table 6, read-out: MIC) it was 1.56 µM (≈ 1.86 µg/mL); in test [3] (Table 6), > 50 µM; in [4] (Table 6), > 50 µM; in test [5] (Acinetobacter baumannii, ATCC17961, Table 6, head prints A. baumannii only, read-out: MIC) it was 0.2 µM (≈ 0.238 µg/mL); in test [6] (Pseudomonas aeruginosa, Table 6) it was > 50 µM.

As for `CC(=O)Oc1cccc(C(=O)NCCCCN(CCCNC(=O)c2cccc(OC(C)=O)c2OC(C)=O)C(=O)CCC(=O)N[C@@H](CCCN(O)C(C)=O)C(=O)N[C@@H](C(=O)N[C@@H]2C(=O)N3C2SC(C)(C)[C@@H]3C(=O)O)c2ccccc2)c1OC(C)=O` (some centres unmarked) [MG-1-186], in [1] (Table 6, read-out: MIC), the MIC is > 50 µM.

For `O=C(CCC(=O)N(CCCCNC(=O)c1cccc(O)c1O)CCCNC(=O)c1cccc(O)c1O)NCCCCCN(O)C(=O)CCCC(=O)NC(C(=O)NC1C(=O)N2C(C(=O)O)=C(Cl)CSC12)c1ccccc1` (centres unmarked) [MG-1-285], the MIC in [5] (read-out: MIC) worked out at 0.025 µM (≈ 0.027 µg/mL).

`CC(=O)Oc1cccc(C(=O)NCCCCN(CC(=O)N[C@H](C(=O)N[C@@H]2C(=O)N3C(C(=O)O)=C(Cl)CC[C@H]23)c2ccccc2)C(=O)c2cccc(OC(C)=O)c2OC(C)=O)c1OC(C)=O` [YML-1-45cr]: the “zones of inhibition (in words)” value is “zones comparable to or even larger than our first sideromycin, 21; also recorded: impressive zones of inhibition” in test [7]; “sizable zone of inhibition; also recorded: impressive zones of inhibition; also recorded: significant activity” in test [8]; “significant activity” in [11] (outer membrane permeable mutant, FIG. 9 center panel). The “AD = agar diffusion inhibition zones” value in [7] is recorded as “(AD = 18) mm”; in test [8] (Table 5), “(AD = 18) mm”; in [9], “(AD = 38) mm”; in test [10], “(AD = 31) mm”; in [11], “(AD = 23) mm”.

Take `O=C(CN(CCCCNC(=O)c1cccc(O)c1O)C(=O)c1cccc(O)c1O)NC(C(=O)NC1C(=O)N2C(C(=O)O)=C(Cl)CSC12)c1ccccc1` (centres unmarked) [YML-1-109]: the MIC in test [2] (Table 7, read-out: MIC) stood at 0.05 µM (≈ 0.0384 µg/mL); in test [5] (Table 7, read-out: MIC) it was 0.05 µM (≈ 0.0384 µg/mL); in test [6] (Table 7) it was 1.56 µM (≈ 1.2 µg/mL). For the same compound, the “antibacterial activity (in words)” value in [12] is reported as “comparable to the loracarbef conjugate YML-1-91”.

As to `CC(C)(C)OC(=O)NCCCCCN(O)C(=O)CCC(=O)N[C@@H](C(=O)N[C@@H]1C(=O)N2C1SC(C)(C)[C@@H]2C(=O)O)c1ccccc1` (some centres unmarked) [YML-I-27], the “AD = agar diffusion inhibition zones” value in test [7] is reported as “(AD = 17) mm”; in test [9], “(AD = 26) mm”; in test [10] it was “(AD = 0) mm”; in test [11], “(AD = 24) (AD = 24) mm”.

Consider `CC(=O)Oc1cccc(C(=O)N(CCCCNC(=O)c2cccc(OC(C)=O)c2OC(C)=O)CC(=O)N[C@H](C(=O)N[C@@H]2C(=O)N3C(C(=O)O)=C(Cl)CC[C@H]23)c2ccccc2)c1O` [YML-I-57], for which the MIC in test [1] (Table 5, read-out: MIC) is 1.56 µM (≈ 1.37 µg/mL); in test [2] (setting [16]), 0.025 µM (≈ 0.0219 µg/mL); in test [3] (Table 5), 12 µM (≈ 10.5 µg/mL); in test [4] (Table 5), > 100 µM; in [5] (setting [17]), 0.02 to 0.0625 µM (≈ 0.0175 to 0.0548 µg/mL); in test [13] it was 0.006 µM (≈ 0.00526 µg/mL). Further, the MIC was 0.006 µM (≈ 0.00526 µg/mL) in test [14], 0.78 µM (≈ 0.683 µg/mL) in test [6] (setting [18]) and 0.125 µM (≈ 0.11 µg/mL) in test [15]. Moreover, the “antibacterial activity (in words)” value in [12] is “comparable to the fully acetylated version, YML-1-45”.

Consider `O=C(CN(CCCCNC(=O)c1cccc(O)c1O)C(=O)c1cccc(O)c1O)N[C@H](C(=O)N[C@@H]1C(=O)N2C(C(=O)O)=C(Cl)CC[C@H]12)c1ccccc1` [YML-I-60], for which the MIC in test [1] (Table 5, read-out: MIC) was 6 µM (≈ 4.5 µg/mL); in test [2] (setting [16]), 0.025 µM (≈ 0.0188 µg/mL); in test [3] (Table 5), 12 µM (≈ 9 µg/mL); in [4] (Table 5) it was > 100 µM; in [5] (setting [17]), 0.03 to 0.06 µM (≈ 0.0225 to 0.045 µg/mL); in [5] (setting [19]), 0.1 µM (≈ 0.075 µg/mL). Also, the MIC in test [6] (setting [18]) is 1.5 µM (≈ 1.13 µg/mL). The “growth inhibition with hydrogel / multi-day diffusion (in words)” value in test [7] (plates stored at 4° C. for 24, 48 and 72 hours, then 37° C., or gel streaked on inoculated dish) is “zones of inhibition increased dramatically after each day”.

Take `CC(=O)Oc1cccc(C(=O)NCCCCN(CC(=O)N[C@@H](C(=O)N[C@@H]2C(=O)N3C2SC(C)(C)[C@@H]3C(=O)O)c2ccccc2)C(=O)c2cccc(O)c2O)c1OC(C)=O` (some centres unmarked) [YML-I-62]: the MIC in [1] (beta-lactamase producer strain, read-out: MIC) is > 100 µM; in test [1] (in the presence of potassium clavulanate, read-out: MIC with added beta-lactamase inhibitor), 0.0625 µM; in [2] (setting [16]), 0.0156 µM (≈ 0.013 µg/mL); in test [3] (Table 5), 0.0156 µM (≈ 0.013 µg/mL); in test [4] (Table 5), 0.78 µM (≈ 0.65 µg/mL); in test [4] (clinical isolate from a cystic fibrosis patient) it was 0.4 to 0.75 µM (≈ 0.334 to 0.625 µg/mL). The MIC in [5] (setting [17]) came to 0.25 µM (≈ 0.208 µg/mL); in test [5] (setting [19]), 0.25 µM (≈ 0.208 µg/mL); in test [6] (setting [18]), 0.0156 µM (≈ 0.013 µg/mL); in test [15], 0.0078 µM (≈ 0.0065 µg/mL). The “zones of inhibition (in words)” value in [8] was “potently active”.

For `CC1(C)S[C@@H]2[C@H](NC(=O)[C@H](N)c3ccc(O)cc3)C(=O)N2[C@H]1C(=O)O` [amoxicillin, reference compound], the “susceptibility of the clinical isolate (in words)” value in test [4] is “resistant”.

Regarding `CC1(C)S[C@@H]2[C@H](NC(=O)[C@H](N)c3ccccc3)C(=O)N2[C@H]1C(=O)O` [ampicillin, reference compound], the MIC in [1] (Table 5, read-out: MIC) was > 200 µM; in [2] (setting [16]), 200 µM (≈ 69.9 µg/mL); in test [2] (Pseudomonas aeruginosa, KW799/WT, iron deficient media, read-out: MIC in Fe(−)MHII Media) it was 250 µM (≈ 87.4 µg/mL); in [3] (Table 5), > 200 µM; in test [4] (Table 5) it was > 200 µM; in test [5] (setting [17]) it was > 200 µM. Also, the MIC is > 200 µM in test [5] (setting [19]); 250 µM (≈ 87.4 µg/mL) in test [5] (Acinetobacter baumannii, ATCC17961, iron deficient media, read-out: MIC in Fe(−)MHII Media); > 250 µM in test [5] (Acinetobacter baumannii, ATCC17961, text, read-out: MIC); > 200 µM in [6] (setting [20]); > 200 µM in test [6] (setting [18]). In addition, in test [4], the “susceptibility of the clinical isolate (in words)” value is given as “resistant”. The “zones of inhibition (in words)” value in [7] and in test [8] was “inactive” throughout.

For the compound `N[C@@H](C(=O)N[C@@H]1C(=O)N2C(C(=O)O)=C(Cl)CS[C@H]12)c1ccccc1` [cefaclor, reference compound], the MIC in test [2] (Pseudomonas aeruginosa, KW799/WT, Table 7, read-out: MIC) is > 50 µM; in test [5] (setting [19]), > 50 µM; in test [6] (setting [20]), > 50 µM.

These data come from patent US11149046B2, “Antibacterial sideromycins” (Hsiri Therapeutics, Inc., priority 2014, dated 2021).
